Assay results taken from patent US9586999B2, “Methods and compositions related to improving properties of pharmacological agents targeting nervous system” (University of Utah Research Foundation, priority 2006, dated 2017).
“Also recorded” adds a separate entry of the source.

Tests used:
[1] = system: hippocampal kindled seizures; experiment: Hippocampal kindled rat model of partial epilepsy; type: in vivo; conditions: i.p.; decreased from 5
6 Hz limbic seizures = experiment: 6 Hz limbic (psychomotor) seizure test; type: in vivo, mouse
Excerpt: Mice not displaying limbic seizures were considered protected.
As mentioned above, the 6 Hz seizure becomes more resistant to block by antiepileptic drugs as the current is increased from 22 mA to 44 mA.

[2] = system: tonic-extension (maximal electroshock) seizures; experiment: Maximal electroshock seizure (MES) test; type: in vivo, mouse; conditions: 4 mg/kg i.p., tested one hour later
Excerpt: Abolition of the hindleg tonic extensor component of the seizure is used as the endpoint.

[3] = system: formalin-induced paw licking; experiment: Mouse formalin test of inflammatory pain; type: in vivo
Protocol: An injection of 0.5% formalin is made into the planter region of a mouse right hind paw. This elicits a distinct biphasic behavioral profile characterized by the mouse licking the affected paw. Immediately following the injection the mouse licks the paw for about 10 minutes. This is phase 1 (acute) and is followed by a brief latent period where there is little behavioral activity. A more prolonged period of about 20 to 30 minutes of paw licking ensues which constitutes phase 2 (inflammatory).
Prior to the administration of the active peptide, drug or vehicle each mouse undergoes a 15-minute conditioning period in one of several 6″ tall plexiglass observation tubes (4″ diameter) that are placed in front of a mirror. […] One hour after treatment, formalin was injected sub-dermally (20 μl; 27 gauge needle) into the plantar surface of the right hind foot. The bevel of the needle is placed facing down toward the skin surface. Following the injection of the formalin each animal is observed for first 2 minutes of each 5 minute epoch for a total of 45 minutes. The cumulative length of licking for each 2 minute time period was measured. An animal receiving the requisite volume of vehicle was alternated with each mouse given GAL-BBB2, Gal 1-16, or gabapentin. Animals were euthanized following the conclusion of the experiment.
Area under the curve (AUC) determination was made using the GraphPad Prism Version 3.03. Total AUC is calculated for both the test and control groups for both the acute and inflammatory phases. The AUC for individual animals for each phase is also calculated and converted to percentage of total AUC of control. The average percentages and SEM for both the drug treated and control were calculated and tested for significant difference.

mechanical allodynia = experiment: Sciatic nerve ligation model of chronic pain, mechanical allodynia (Von Frey); type: in vivo, rat; conditions: 2 mg/kg i.p.
Protocol: Just prior to surgery, rats are treated subcutaneously with 0.1 to 0.5 mg/kg of the long acting opiate buprenorphine. Rats are then anesthetized with pentobarbital and the depth of anesthesia monitored by their response to a tail pinch and observation of the depth of respiration. Sterile technique was used throughout the surgery.
The upper thigh of each rat was shaved and wiped off with ethanol and betadine. A small incision was made in the skin and through the underlying muscle of the upper thigh until the sciatic nerve was exposed. The nerve was then separated from the surrounding connective tissue and slightly elevated by a pair of fine, curved forceps. Approximately ⅓ to ½ of the nerve was then tied off by passing a needle and nylon suture (7.0) through the nerve. […] Rats were closely monitored daily for the development of infection or untoward effects of the surgery.
After an appropriate time for recovery (e.g., 7-14 days) the animals were tested for the development of mechanical allodynia (pain response to a non-noxious stimulus). […] After a 30-60 minute acclimation period, a baseline mechanical sensitivity was determined. […] This procedure was repeated until a 50% threshold for withdrawal could be determined.

Sar-Trp-Thr-Leu-Asn-Ser-Ala-Gly-Tyr-Leu-Leu-Gly-Pro-Lys-Lys-(Lys-palm)-Lys-NH2 [NAX 5055]
seizure score [1]: 3
activity in pharmaco-resistant seizure model (6 Hz limbic seizures; 4 mg/kg): active
potency and efficacy relative to native peptide fragment (6 Hz limbic seizures; 6 Hz (32 mA), i.c.v.): more potent and efficacious than the native peptide fragment GAL(1-16)
% Protection at 2 hours afforded by a dose of 4 mg/kg, i.p. (6 Hz limbic seizures; 2 h, 4 mg/kg i.p.): 100%
% Protection at 4 hours afforded by a dose of 4 mg/kg, i.p. (6 Hz limbic seizures; 4 h, 4 mg/kg i.p.): 0%
ED50 in the 6 Hz limbic seizure model (in Table 14 in parentheses) (6 Hz limbic seizures; i.p., SAR analogs): (0.8 mg/kg)
ED50 following i.c.v. administration (6 Hz limbic seizures; intracerebroventricular, 6 Hz (32 mA)): 0.07 nmol
anticonvulsant activity following subcutaneous administration (6 Hz limbic seizures; s.c., 32 mA, 60 min, CF-1 mice): preserved; also recorded: retained
activity in maximal electroshock seizure test [2]: completely inactive
effect compared with gabapentin ([3]; 5 mg/kg): equivalent to a 10 mg/kg dose of gabapentin
paw licking, acute and inflammatory phase ([3]; 0.52-5 mg/kg i.p., 1 h before formalin): dose-dependent reduction in paw licking
phase II response at the active dose ([3]; mouse formalin assay): (“flat phase II”)
Active at ([3]; mouse formalin assay of inflammatory pain): 5 mg/kg
potency in mouse formalin assay ([3]; mouse, in vivo): potent
threshold for mechanical allodynia (mechanical allodynia; 30 min to 6 h): time-dependent increase in the threshold for mechanical allodynia
potency relative to morphine (2 mg/kg) and gabapentin (40 mg/kg) (mechanical allodynia; listed as GAL-BBB2): equi-potent to morphine; also recorded: several fold more potent that gabapentin
